Earlier results in patent publication US8653046B2, “Controlling transgene expression across the skin” (ETH Zurich, priority 2009, dated 2014).

Conditions: rodents, cited from earlier work

In the case of `O=C(CCc1ccc(O)cc1)c1c(O)cc(O)cc1O` [phloretin, 3-[4-hydroxyphenyl]-1-[2,4,6-trihydroxyphenyl]-1-propanone], the half-life in vivo is given as “rather short half-life in vivo” and the “systemic distribution after dermal administration” value (dermal administration) is given as “systemically spread”.
